# From patent US10537610B1, “Peptide for inhibition of cancer” (priority 2018, dated 2020)
# Read-outs that look alike come from different tables or passages of the source. Non-standard residues stand in square brackets, D forms with d. Residues, ends and D or L forms follow the SMILES beside them.
# Tests used:
# Assay type in all cases: cell-based, human
# [1] = system: breast cancer cells (MCF-7, MDA-MB-231) across HMEC-1 monolayer; assay: Transmigration (TEM) of breast cancer cells across the endothelial monolayer
# Experimental: (§1) The peptides were synthesized and purified by LifeTein, LLC (Somerset, N.J., USA) with the purity of not less than 95% using PeptideSyn™ technology that incorporates solid phase fluorenylmethyloxycarbonyl (Fmoc) chemistry. The cells were treated with the peptide P4D for 0, 1, 5, or 24 hours at a concentration of 500 μM. The cells treated with the Scrambled peptide P4D (Scr; 500 μM; 0, 1, 5, or 24 hours incubation time) were used as a negative control. In order to provide the positive control of the junctions tightening for impedance-based measurements of endothelial permeability, the cells were incubated with the potent activator of TJ assembly, forskolin (FSK; BioShop, Burlington, ON, Canada), for 24 hours at a concentration of 10 μM.
# HMEC-1 endothelial cells were cultured in fibronectin-coated Transwell units with polycarbonate filter and 8 μm pores (Costar, Corning, N.Y., USA) in 24-well plates for 2 days at 37° C. to form a confluent monolayer. Human breast cancer (MCF-7, MDA-MB-231) or non-tumorigenic (MCF-10A) human breast cells were starved overnight and labeled with the green fluorescent marker CellTracker Green CMFDA Dye (Molecular Probes, Eugene, Oreg., USA). An aliquot (1×10^5/well) of fluorescent breast cancer cells in serum-free medium was added in the top of the Transwell chamber, whereas the conditioned medium was used as a chemoattractant in the lower compartment. Non-tumorigenic human breast cell line MCF-10A was used as control. The wells containing the serum-free medium in the lower compartment were used to estimate the background migration. The breast cancer cells were allowed to migrate across the endothelial monolayer for 6 hours in a humidified incubator (temperature of 37° C. and 5% CO2 atmosphere) with or without the previously specified factors or with their combinations.
# At the end of the transmigration assay, non-migrated cells were gently wiped out from the inner surface of the membrane with cosmetic cotton swab. The assay was documented at 200× magnification (10× eyepiece and 20× objective) with fluorescent inverted microscope Axio Vert.A1 (Zeiss, Oberkochen, Germany) and high-performance CMOS 2.3-MP AxioCam 702 mono digital camera (Zeiss) controlled by ZEN software, version 2.3 (Zeiss). The migrated cells (five randomly chosen fields of each well) were counted using the Cell Counter tool of the ImageJ software. Cell migration towards serum-free medium was treated as background and subtracted from the corresponding numbers of cells migrated towards conditioned medium.
# [2] = system: MCF-10A cells across HMEC-1 monolayer; assay: Transmigration (TEM) of MCF-10A cells across the endothelial monolayer
# Experimental: as §1
# HMEC-1 endothelial cells were cultured in fibronectin-coated Transwell units with polycarbonate filter and 8 μm pores (Costar, Corning, N.Y., USA) in 24-well plates for 2 days at 37° C. to form a confluent monolayer. […]
# At the end of the transmigration assay, non-migrated cells were gently wiped out from the inner surface of the membrane with cosmetic cotton swab. […] The migrated cells (five randomly chosen fields of each well) were counted using the Cell Counter tool of the ImageJ software. […]
# [3] = system: HMEC-1 endothelial monolayer
# Experimental: The cells were treated with the peptide P4D for 0, 1, 5, or 24 hours at a concentration of 500 μM. The cells treated with the Scrambled peptide P4D (Scr; 500 μM; 0, 1, 5, or 24 hours incubation time) were used as a negative control. In order to provide the positive control of the junctions tightening for impedance-based measurements of endothelial permeability, the cells were incubated with the potent activator of TJ assembly, forskolin (FSK; BioShop, Burlington, ON, Canada), for 24 hours at a concentration of 10 μM. Experiments based on impedance measurements were performed at Bionanopark, Ltd. (Lodz, Poland) with an ACEA xCELLigence® Real-Time Cell Analysis (RTCA) DP system (Roche, Mannheim, Germany) consisting of an RTCA DP instrument, a personal computer-based RTCA control unit and single-use electronic 16-well plates “E-Plate VIEW 16 PET”. All experiments were performed following the manufacturer's instructions. In brief, the gold-film electrodes deposited on the bottom of the “E-plate VIEW 16 PET” electrode arrays were equilibrated with MCDB 131 culture medium overnight. Subsequently, the medium was aspirated and replaced by a 100 μL of fresh medium for impedance background measurements. HMEC-1 cells were seeded at a density of 40,000 cells per well in MCDB 131 medium with supplements. After allowing cell sedimentation for 30 min at room temperature, plates were locked into the RTCA DP instrument for continuous recording of impedance changes at three different AC frequencies (10 kHz, 25 kHz, 50 kHz), which are expressed as Cell Index (CI) values. CI is a dimensionless parameter based on relative impedance changes referenced to the values of the cell-free electrode at each frequency: [formula] where N is the number of the frequency points at which the impedance was measured, whereas […] Rb(fi) are the frequency-dependent electrode resistances with cells present and without cells, respectively. Thus, CI is a quantitative measure of cell status in a well, including the cell number, cell viability, adhesion degree, and morphology. Although CI is measured at three frequencies, only the most sensitive readings are returned by the software as a function of time and reported as the final results. In general, CI values rise with increasing coverage of the electrode with cells, which is caused at an early stage by cell sedimentation and, later on, by cell proliferation. During the phase of logarithmic cell growth HMEC-1 cells were pretreated with cytokines (TNF/IFN) and after 24 hours subsequently treated with the tested compounds (Scr, P4D, or FSK). For some experiments, the cells were treated with the compounds 2 hours after the cytokines treatment. Alternatively, the compounds treatment was applied about 3 hours after HMEC-1 seeding and about 67 hours later was followed by the cytokines treatment. This experimental approach included additionally the sample designated as 'P4D & TNF/IFN' i.e. after the pretreatment with P4D the cells were subjected to the concurrent treatment with P4D and cytokines.
# JAM-A (CD321) = assay: Flow cytometry of JAM-A (CD321) on the surface of HMEC-1 cells; conditions: Tβ4 200 nM, TGF-β1 10 ng/ml or TNF-α 10 ng/mL, 24 hours
# Description: For the detection of JAM-A surface expression the cells were labeled with FITC anti-human CD321 (F11R) Mouse IgG1 Antibody (BioLegend, San Diego, Calif., USA) or with the FITC Mouse IgG1 Isotype Control Antibody (BioLegend) for the negative control. Labeled cells were washed to remove unbound antibodies, harvested with ice cold EDTA/PBS, fixed with BD CellFix (Becton Dickinson. Franklin Lakes, N.J., USA) and subsequently analyzed by FACS Canto II flow cytometer (Becton Dickinson). Upon excitation at 488 nm with an argon laser the emission of the fluorescence was recorded through selective band pass filter at 517 nm. Data were recorded with DIVA software, version 6.0 (Becton Dickinson) and subsequently analyzed using FCSalyzer software, version 0.9.14-alpha (https://sourceforge.net/projects/fcsalyzer/).
Compound,"transmigration of breast cancer cells across cytokine-activated endothelial monolayer ([1]; P4D 500 μM, HMEC-1 preincubated with TNF/IFN)","Tβ4-activated TEM ([1]; P4D 500 μM, HMEC-1 preincubated with Tβ4 200 nM for 24 hours, all tested MECs (MCF-7, MDA-MB-231, MCF-10A))","degree of TEM inhibition, MCF-7 cells compared with other MECs ([1]; P4D 500 μM, inflamed endothelium)","transmigration of MCF-10A cells across cytokine-treated endothelium ([2]; P4D 500 μM, TNF/IFN-treated HMEC-1)",barrier-protecting effect (Cell Index) ([3]; P4D about 2.5 hours after plating plus second supplementary dose simultaneously with cytokines ('P4D & TNF/IFN')),"barrier-protecting effect (Cell Index) ([3]; P4D about 2.5 hours after plating, cytokines about 60 hours later, no supplementary dose)","barrier-strengthening effect relative to forskolin ([3]; applied ~24 hours after seeding, FSK 10 μM)","endothelial barrier function (Cell Index) ([3]; applied ~24 hours after seeding, compared to controls)",barrier-protecting effect (Cell Index) ([3]; compound applied 24 hours after treatment with inflammatory cytokines (TNF/IFN)),JAM-A (CD321) level on the cell surface (JAM-A (CD321)),"transmigration of MCF-7 and MDA-MB-231 across HMEC-1 monolayer, effect of Tβ4 ([1]; Tβ4 200 nM, 24 hours, vs. CTRL (non-treated) cells)","TEM of MCF-10A cells, effect of Tβ4 ([2]; Tβ4 200 nM, 24 hours, in the presence of the Scr peptide)"
"CC(C)[C@H](NC(=O)[C@H](CO)NC(=O)[C@H](N)CCCCN)C(=O)N[C@H](C(=O)N[C@H](CCCNC(=N)N)C(=O)N[C@@H](CCC(=O)O)C(=O)N[C@@H](CC(=O)O)C(=O)N[C@H](C(=O)NCC(=O)N[C@H](C(=O)N[C@@H](Cc1ccc(O)cc1)C(=O)N[C@H](C(=O)N[C@@H](CS)C(N)=O)[C@@H](C)O)[C@@H](C)O)[C@@H](C)O)[C@@H](C)O [Peptide P4D, NH2-(dK)-SVT-(dR)-EDTGTYTC-CONH2] (H-[dK]SVT[dR]EDTGTYTC-NH2)",hindered,abrogated the Tβ4-activated TEM,highest degree of TEM inhibition,markedly inhibited,even more evident than that one of FSK,did not reveal any barrier-protecting properties,apparently weaker than that one of forskolin,slightly strengthened endothelial barrier function,did not reproduce the barrier-protecting effect of FSK,–,–,–
"Thymosin β4 (SDKPDMAEIEKFDKSKLKKTETQEKNPLPSKETIEQEKQAGES; not fully specified; Thymosin beta-4; UniProt P62328 2-44, looked up) [Tβ4]",–,–,–,–,–,–,–,–,–,slightly decreased JAM-A level on the membrane of HMEC-1 cells,slightly stimulated,significantly elevated the TEM of MCF-10A cells
